Data: patent US10947213B1 (Merck Patent GmbH, priority 2015, dated 2021)
Counter-ions that a name gives are not always drawn.

What follows are compounds tested against T1, TLR7/NFKb HEK cells (Homo sapiens, UniProt Q9NYK1) (assay: HEK Cell Assay (TLR7/NFKb reporter, Steady-Glo luciferase readout)). Conditions: 30 min compound preincubation, then R*48 agonist for 5 hours, read-out: Potency.
T1 construct: expressed in transfected cells; host or cells: HEK cells (TLR7/NFKb reporter line)
T1 sequence (Q9NYK1 27-1049): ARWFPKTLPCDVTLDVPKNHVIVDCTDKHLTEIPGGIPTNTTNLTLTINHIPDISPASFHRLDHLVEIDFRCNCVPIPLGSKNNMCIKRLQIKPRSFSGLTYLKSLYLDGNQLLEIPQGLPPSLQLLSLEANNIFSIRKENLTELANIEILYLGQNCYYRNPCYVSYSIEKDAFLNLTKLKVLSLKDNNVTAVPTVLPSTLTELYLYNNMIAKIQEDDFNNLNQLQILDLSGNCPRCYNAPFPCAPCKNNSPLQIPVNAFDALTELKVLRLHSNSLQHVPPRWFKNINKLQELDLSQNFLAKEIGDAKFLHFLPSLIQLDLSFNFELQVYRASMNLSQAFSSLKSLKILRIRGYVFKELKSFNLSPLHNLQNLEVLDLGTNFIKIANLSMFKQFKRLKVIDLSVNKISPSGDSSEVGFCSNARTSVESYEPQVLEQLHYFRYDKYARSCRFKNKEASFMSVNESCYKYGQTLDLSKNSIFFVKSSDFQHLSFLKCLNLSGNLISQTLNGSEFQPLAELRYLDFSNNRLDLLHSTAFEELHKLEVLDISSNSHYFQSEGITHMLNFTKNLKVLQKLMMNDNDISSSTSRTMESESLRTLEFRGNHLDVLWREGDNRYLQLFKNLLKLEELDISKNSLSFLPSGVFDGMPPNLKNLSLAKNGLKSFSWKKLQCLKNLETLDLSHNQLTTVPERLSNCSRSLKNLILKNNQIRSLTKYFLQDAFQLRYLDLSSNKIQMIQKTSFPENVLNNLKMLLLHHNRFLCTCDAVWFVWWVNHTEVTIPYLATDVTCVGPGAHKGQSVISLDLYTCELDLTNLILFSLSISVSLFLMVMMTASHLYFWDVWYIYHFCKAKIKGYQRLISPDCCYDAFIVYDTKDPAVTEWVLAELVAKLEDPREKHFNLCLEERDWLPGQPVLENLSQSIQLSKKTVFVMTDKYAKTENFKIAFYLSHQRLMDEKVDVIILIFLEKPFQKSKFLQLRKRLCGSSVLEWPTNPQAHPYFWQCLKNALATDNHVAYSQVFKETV
Assay type: cell-based
Description: Example 142: HEK Cell Assay
Into 384 CulturePlates (Corning 3707) was placed 5000 c/w of TLR7/NFKb HEK cells in 30 uL DMEM without Phenil red (gibco #31053) and 10% i.a. FCS and 2 mM L-ZGLutamin. The cells were incubated for 24 h at 37° C., 10% carbon dioxide and 90% relative humidity. 3 uL of controls, standards, and compounds were dispensed into wells, incubated for 30 min then 3 uL of R*48 agonist in 20 mM Hepes was added. After incubation for 5 hours, they were allowed to stand at room temperature for 15 min. To this was added 10 uL of Steady-Glo substrate reagent and shake assay plate for 5 min at 1500 rpm. The assay plate was allowed to sit for 30 min at room temperature and then the plate was read on EnVision.
For `N#Cc1ccc(N2CCC(C(=O)NCCN3CCC3)CC2)c2cccnc12` [Compound 439, 1-(8-Cyano-quinolin-5-yl)-piperidine-4-carboxylic Acid (2-azetidin-1-yl-ethyl)-amide], the IC50 was less than 1000 nM. In the case of `C[C@H]1C[C@@H](NCC(N)=O)CN(c2ccc(C#N)c3nccnc23)C1` [Compound 122, 2-[[(3R,5S)-1-(8-cyanoquinoxalin-5-yl)-5-methylpiperidin-3-yl]amino]acetamide], the IC50 is reported as less than 1000 nM. For `CCN(CC)CCNC(=O)C1CCN(c2ccc(C(F)(F)F)c3ncccc23)CC1` [Compound 446, 1-(8-Trifluoromethyl-quinolin-5-yl)-piperidine-4-carboxylic Acid (2-diethylamino-ethyl)-amide], the IC50 was less than 1000 nM. `C[C@H]1C[C@@H](NC(=O)CN2CCC(F)(F)CC2)CN(c2ccc(C(F)(F)F)c3ncccc23)C1` [Compound 350, 2-(4,4-difluoropiperidin-1-yl)-N-[(3R,5S)-5-methyl-1-[8-(trifluoromethyl)quinolin-5-yl]piperidin-3-yl]acetamide] showed an IC50 of less than 1000 nM. In the case of `CN(C)C(=O)CCC(=O)N1CCN(c2ccc(C#N)c3nccnc23)CC1` [Compound 454, 4-[4-(8-Cyano-quinoxalin-5-yl)-piperazin-1-yl]-N,N-dimethyl-4-oxo-butyramide], the IC50 is reported as 1000 to 10000 nM. `CC(C(=O)N[C@@H]1C[C@H](C)CN(c2ccc(C(F)F)c3nccnc23)C1)N1CCC(O)CC1` (stereo partly drawn) [Compound 325, N-[(3R,5S)-1-[8-(difluoromethyl)quinoxalin-5-yl]-5-methylpiperidin-3-yl]-2-(4-hydroxypiperidin-1-yl)propanamide] gave an IC50 of 1000 to 10000 nM. For `CN(C)CCNC(=O)N1CCN(c2ccc(C#N)c3nccnc23)CC1` [Compound 463, 4-(8-Cyano-quinoxalin-5-yl)-piperazine-1-carboxylic Acid (2-dimethylamino-ethyl)-amide], the IC50 was less than 1000 nM. In the case of `CC(C)[C@H](O)C(=O)NC1CC(C(F)(F)F)CN(c2ccc(C#N)c3ncccc23)C1` (single isomer, unassigned) [Compound 430], the IC50 is reported as less than 1000 nM. Compound `Cc1ccc(N2C[C@@H](C)C[C@@H](N)C2)c2cccnc12` [Compound 462, (3R,5S)-5-Methyl-1-(8-methyl-quinolin-5-yl)-piperidin-3-ylamine hydrochloride] has an IC50 of less than 1000 nM. Compound `C[C@H]1C[C@@H](NC(=O)C(N)C(F)(F)F)CN(c2ccc(C(F)(F)F)c3ncccc23)C1` (single isomer, unassigned) [Compound 198] has an IC50 of less than 1000 nM. With `CNC(=O)CCC(=O)NC1CC(C(F)(F)F)CN(c2ccc(C#N)c3ncccc23)C1` (racemic) [Compound 492, cis-(N-1-(8-Cyano-quinolin-5-yl)-5-trifluoromethyl-piperidin-3-yl]-N′-methyl-succinamide)] the IC50 was 1000 to 10000 nM. `C[C@H]1C[C@@H](NC(=O)C2(O)CC2)CN(c2ccc(C#N)c3nccnc23)C1` [Compound 230, N-[(3R,5S)-1-(8-cyanoquinoxalin-5-yl)-5-methylpiperidin-3-yl]-1-hydroxycyclopropane-1-carboxamide] gave an IC50 of less than 1000 nM. Work on `CCN(CC)CC(=O)NC1CCN(c2ccnc3nccnc23)CC1` [Compound 390, 2-Diethylamino-N-(1-pyrido[2,3-b]pyrazin-8-yl-piperidin-4-yl)-acetamide] yielded an IC50 of 1000 to 10000 nM. In the case of `Cc1ncc(N2C[C@@H](C)C[C@@H](NC(=O)[C@@H](O)C3CC3)C2)c2cccnc12` [Compound 559, (S)-2-Cyclopropyl-2-hydroxy-N-[(3R,5S)-5-methyl-1-(8-methyl-[1,7]naphthyridin-5-yl)-piperidin-3-yl]-acetamide], the IC50 is reported as 1000 to 10000 nM. `CCC(C)CC(=O)N[C@@H]1C[C@H](C)CN(c2ccnc3nccnc23)C1` (single isomer, unassigned) [Compound 152] gave an IC50 of 1000 to 10000 nM. `CC(C(=O)N[C@@H]1C[C@H](C)CN(c2ccc(C(F)(F)F)c3nccnc23)C1)N1CCC(O)CC1` (single isomer, unassigned) [Compound 371] was tested, and the IC50 was less than 1000 nM. `O=C(CN1CCC1)NCC1CCN(c2ccnc3nccnc23)CC1` [Compound 402, 2-Azetidin-1-yl-N-(1-pyrido[2,3-b]pyrazin-8-yl-piperidin-4-ylmethyl)-acetamide] gave an IC50 of 1000 to 10000 nM. With `O=C(NCCN1CCCCC1)C1CCN(c2ccc(C(F)(F)F)c3ncccc23)CC1` [Compound 441, 1-(8-Trifluoromethyl-quinolin-5-yl)-piperidine-4-carboxylic Acid (2-piperidin-1-yl-ethyl)-amide] the IC50 was less than 1000 nM. `C[C@H]1C[C@@H](NC(=O)CN(C)CCO)CN(c2ccc(C#N)c3nccnc23)C1` [Compound 144, N-[(3R,5S)-1-(8-cyanoquinoxalin-5-yl)-5-methylpiperidin-3-yl]-2-[(2-hydroxyethyl)(methyl)amino]acetamide] gave an IC50 of less than 1000 nM. `C[C@H]1C[C@@H](NC(=O)CN2CCN(C)CC2)CN(c2ccc(C(F)(F)F)c3ncccc23)C1` [Compound 243, N-[(3R,5S)-5-methyl-1-[8-(trifluoromethyl)quinolin-5-yl]piperidin-3-yl]-2-(4-methylpiperazin-1-yl)acetamide] showed an IC50 of less than 1000 nM. Compound `C[C@@H]1CN(c2ccnc3nccnc23)C[C@H](CN2CCN(C)CC2)O1` [Compound 47, (2R,6S)-2-methyl-6-((4-methylpiperazin-1-yl)methyl)-4-(pyrido[2,3-b]pyrazin-8-yl)morpholine] has an IC50 of 1000 to 10000 nM. With `N[C@@H]1C[C@H](C(F)(F)F)CN(c2ccnc3nccnc23)C1` (racemic) [Compound 84] the IC50 was 1000 to 10000 nM. Compound `C[C@H]1C[C@@H](NC(=O)CN(C)C)CN(c2ccc(C(N)=O)c3ncccc23)C1` [Compound 186, 5-[(3R,5S)-3-[2-(dimethylamino)acetamido]-5-methylpiperidin-1-yl]quinoline-8-carboxamide] has an IC50 greater than 10000 nM. `C[C@H]1C[C@@H](NC(=O)C(N)C(F)(F)F)CN(c2ccc(C(N)=O)c3ncccc23)C1` (single isomer, unassigned) [Compound 184] showed an IC50 greater than 10000 nM. Work on `N#Cc1ccc(N2C[C@H](NC(=O)N3C[C@@H](F)[C@@H](F)C3)C[C@H](C(F)(F)F)C2)c2cccnc12` [Compound 581, (3R,4S)-3,4-Difluoro-pyrrolidine-1-carboxylic Acid [(3R,5S)-1-(8-cyano-quinolin-5-yl)-5-trifluoromethyl-piperidin-3-yl]-amide] yielded an IC50 of 1000 to 10000 nM. With `N#Cc1ccc(N2CC(N)CC(C3CC3)C2)c2nccnc12` (single isomer, unassigned) [Compound 70, 8-(3-amino-5-cyclopropylpiperidin-1-yl)quinoxaline-5-carbonitrile] the IC50 was less than 1000 nM. Work on `C[C@H]1C[C@@H](NC(=O)CNC(C)(C)C)CN(c2ccnc3nccnc23)C1` [Compound 143, 2-(tert-butylamino)-N-[(3R,5S)-5-methyl-1-[pyrido[2,3-b]pyrazin-8-yl]piperidin-3-yl]acetamide] yielded an IC50 greater than 10000 nM. `C[C@H]1C[C@@H](NCC#N)CN(c2ccc(C#N)c3nccnc23)C1` [Compound 38, 8-((3R,5S)-3-(cyanomethylamino)-5-methylpiperidin-1-yl)quinoxaline-5-carbonitrile] gave an IC50 of less than 1000 nM. In the case of `CC1(C)C[C@@H](NC(=O)CC(F)(F)F)CN(c2ccc(C#N)c3nccnc23)C1` [Compound 220, N-[(3R)-1-(8-cyanoquinoxalin-5-yl)-5,5-dimethylpiperidin-3-yl]-3,3,3-trifluoropropanamide], the IC50 is reported as 1000 to 10000 nM. `C[C@H]1C[C@@H](NC(=O)C2(C)COC2)CN(c2ccnc3nccnc23)C1` [Compound 37, 3-methyl-N-((3R,5S)-5-methyl-1-(pyrido[2,3-b]pyrazin-8-yl)piperidin-3-yl)oxetane-3-carboxamide] gave an IC50 greater than 10000 nM. With `CC(C)C(C)C(=O)N[C@@H]1C[C@H](C)CN(c2ccnc3nccnc23)C1` (stereo partly drawn) [Compound 168, 2,3-dimethyl-N-[(3R,5S)-5-methyl-1-[pyrido[2,3-b]pyrazin-8-yl]piperidin-3-yl]butanamide] the IC50 was greater than 10000 nM. `C[C@H]1C[C@@H](NC(=O)CN(C)C)CN(c2ccc(Cl)c3ncccc23)C1` [Compound 264, N-[(3R,5S)-1-(8-chloroquinolin-5-yl)-5-methylpiperidin-3-yl]-2-(dimethylamino)acetamide] gave an IC50 of less than 1000 nM.
